Like-named read-outs stand apart in the source and are kept apart here.
Legend:
[1] = target: T1, recombinant HIV-1 protease (Human immunodeficiency virus type 1 group M subtype B, UniProt P04585); assay: HIV protease inhibition activity (enzyme activity inhibition rate); assay type: biochemical; details: 50 nM final concentration of test compound, 60 min at 37° C.; for inhibition at 0.05 µM: read-out: Enzyme activity inhibition rate (%) (addition concentration of 50 nM)
T1 construct: measured using a recombinant HIV-1 protease
Description: The protease activity was measured using a recombinant HIV-1 protease (see Biochemistry, 250 (9)-264 (1990)) and a synthesized peptide substrate. The inhibition rate was calculated by determining a peptide fragment generated by cleavage between Tyr-Pro of the synthesized substrate after the reaction of 60 min at 37° C. using a reversed phase HPLC in the presence of the test compounds in various concentrations (see, for example, Japanese Patent Application Laid-open No. 170722/1993).
Examples of the evaluation results of the HIV protease inhibition activity of the tripeptide compound of the present invention by the above-described method is shown in Table 1. […] The concentration of the test compounds in Table 1 represents the final concentration in the reaction mixture.

[2] = target: T1, recombinant HIV-1 protease; assay: Evaluation of enzyme inhibition constant Ki; assay type: biochemical
Description: The synthesized peptide substrate having a sequence of H-Lys-Ala-Arg-Val-Tyr-Phe (4-NO2)-Glu-Ala-Nle-NH2 (SEQ ID NO. 1) was used in this experiment. The enzyme reaction was measured using a reversed phase HPLC by determining the C-terminal peptide fraction produced by cleavage just behind Tyr in the synthesized substrate which is obtained by reacting the following composition for 15 min. at 37° C. and stopping the reaction by the addition of 1N HCl (75 μl).
Composition of reaction mixture
Recombinant HIV-1 protease enzyme solution 10 μl
0.5 mM synthetic substrate aqueous solution 10 μl
DMSO Inhibitor solution 5 μl
0.2 M MES solution 25 μl
(1 M NaCl, 2 mM EDTA-2Na, 2 mM DTT, pH 5.5)
Column: Waters Nova-pak C18 (3.9×75 mm)
Eluent: A; water (0.1% TFA)
B; acetonitrile (0.1% TFA)
Flow rate: 2 ml/min isocratic; 10% B solution
Detection: Fluorescence 305 nm, excitation 275 nm

| Compound | inhibition at 0.05 µM [1] [%] | also measured |
| --- | --- | --- |
| Cc1ccccc1CNC(=O)[C@H]1N(C(=O)[C@@H](O)[C@H](Cc2ccccc2)NC(=O)[C@H](CC(N)=O)NC(=O)c2cc(=O)c3ccccc3o2)CSC1(C)C [Example 6, (R)-N-(2-methylbenzyl)-3-{(2S,3S)-3-[N-(2-chromonecarbonyl)-L-asparaginyl]amino-2-hydroxy-4-phenylbutanoyl}-5,5-dimethyl-1,3-thiazolidine-4-carboxamide] | – | Enzyme activity inhibition rate (%) (addition concentration of 50 nM) [1]: 98.4%; Ki ([2]; reversible tight-binding inhibitor model, test compound 1-100 nM, 15 min at 37° C., pH 5.5, read-out: Enzyme inhibition constant Ki): 0.0017 nM |
| CC(C)(C)NC(=O)[C@H]1N(C(=O)[C@@H](O)[C@H](Cc2ccccc2)NC(=O)[C@H](CC(N)=O)NC(=O)OCc2ccccc2)CSC1(C)C [reference compound] | – | Ki [2]: 0.212 nM |
| Cc1ccccc1CNC(=O)[C@H]1N(C(=O)[C@@H](O)[C@H](Cc2ccccc2)NC(=O)[C@H](CC(N)=O)NC(=O)OCc2ccccc2)CSC1(C)C [Example 3, (R)-N-(2-methylbenzyl)-3-{(2S,3S)-3-[N-(benzyloxycarbonyl)-L-asparaginyl]amino-2-hydroxy-4-phenylbutanoyl}-5,5-dimethyl-1,3-thiazolidine-4-carboxamide] | 100 | Ki [2]: 0.016 nM |
| Cc1ccccc1CNC(=O)[C@H]1N(C(=O)[C@@H](O)[C@H](Cc2ccccc2)NC(=O)[C@H](CC(N)=O)NC(=O)c2cc3ccccc3o2)CSC1(C)C [Example 7, (R)-N-(2-methylbenzyl)-3-{(2S,3S)-3-[N-(2-benzofurancarbonyl)-L-asparaginyl]amino-2-hydroxy-4-phenylbutanoyl}-5,5-dimethyl-1,3-thiazolidine-4-carboxamide] | 91.2 | Ki [2]: 0.0048 nM |
| CC1(C)SCN(C(=O)[C@@H](O)[C@H](Cc2ccccc2)NC(=O)[C@H](CC(N)=O)NC(=O)OCc2ccccc2)[C@@H]1C(=O)NCc1ccccc1 [Example 1, (R)-N-benzyl-3-{(2S,3S)-3-[N-(benzyloxycarbonyl)-L-asparaginyl]amino-2-hydroxy-4-phenylbutanoyl}-5,5-dimethyl-1,3-thiazolidine-4-carboxamide] | 96 | Ki [2]: 0.019 nM |
| CC(=O)N[C@H](C(=O)N[C@@H](Cc1ccccc1)[C@H](O)C(=O)N1CSC(C)(C)[C@H]1C(=O)NCc1ccccc1C)C(C)C [Example 33, (R)-N-(2-methylbenzyl)-3-{(2S,3S)-2-hydroxy-3-[(S)-2-acetylamino-3-methylbutanoyl]amino-4-phenylbutanoyl}-5,5-dimethyl-1,3-thiazolidine-4-carboxamide] | 89.8 | – |
| COC(=O)N[C@@H](CC(N)=O)C(=O)N[C@@H](Cc1ccccc1)[C@H](O)C(=O)N1CSC(C)(C)[C@H]1C(=O)NCc1ccccc1C [Example 40, (R)-N-(2-methylbenzyl)-3-{(2S,3S)-2-hydroxy-3-[N-(methoxycarbonyl)-L-asparaginyl]amino-4-phenylbutanoyl}-5,5-dimethyl-1,3-thiazolidine-4-carboxamide] | 94.3 | – |
| Cc1ccccc1CNC(=O)[C@H]1N(C(=O)[C@@H](O)[C@H](Cc2ccccc2)NC(=O)[C@H](CC(N)=O)NC(=O)c2cnc3ccccc3n2)CSC1(C)C [Example 18, (R)-N-(2-methylbenzyl)-3-{(2S,3S)-3-[N-(2-quinoxalinecarbonyl)-L-asparaginyl]amino-2-hydroxy-4-phenylbutanoyl}-5,5-dimethyl-1,3-thiazolidine-4-carboxamide] | 98.8 | – |
| Cc1ccccc1CNC(=O)[C@H]1N(C(=O)[C@@H](O)[C@H](Cc2ccccc2)NC(=O)[C@@H](NC(=O)COc2cccc3ncccc23)C(C)C)CSC1(C)C [Example 23, (R)-N-(2-methylbenzyl)-3-{(2S,3S)-2-hydroxy-3-[(S)-2-(5-quinolinyloxyacetyl)amino-3-methylbutanoyl]amino-4-phenylbutanoyl}-5,5-dimethyl-1,3-thiazolidine-4-carboxamide] | 98.5 | – |
| Cc1ccccc1CNC(=O)[C@H]1N(C(=O)[C@@H](O)[C@H](Cc2ccccc2)NC(=O)[C@@H](NC(=O)c2cc3ccccc3o2)C(C)C)CSC1(C)C [Example 11, (R)-N-(2-methylbenzyl)-3-{(2S,3S)-3-[N-(2-benzofurancarbonyl)-L-valyl]amino-2-hydroxy-4-phenylbutanoyl}-5,5-dimethyl-1,3-thiazolidine-4-carboxamide] | 97.1 | – |
| Cc1ccccc1CNC(=O)[C@H]1N(C(=O)[C@@H](O)[C@H](Cc2ccccc2)NC(=O)[C@H](C)NC(=O)COc2cccc(N(C)C)c2)CSC1(C)C [Example 26, (R)-N-(2-methylbenzyl)-3-{(2S,3S)-2-hydroxy-3-[(S)-2-(3-dimethylaminophenoxyacetyl)aminopropanoyl]amino-4-phenylbutanoyl}-5,5-dimethyl-1,3-thiazolidine-4-carboxamide] | 99.9 | – |
| CC[C@H](NC(=O)OC)C(=O)N[C@@H](Cc1ccccc1)[C@H](O)C(=O)N1CSC(C)(C)[C@H]1C(=O)NCc1ccccc1C [Example 28, (R)-N-(2-methylbenzyl)-3-{(2S,3S)-2-hydroxy-3-[(S)-2-(methoxycarbonyl)aminobutanoyl]amino-4-phenylbutanoyl}-5,5-dimethyl-1,3-thiazolidine-4-carboxamide] | 93.6 | Ki [2]: 0.242 nM |
| COCC(=O)N[C@H](C(=O)N[C@@H](Cc1ccccc1)[C@H](O)C(=O)N1CSC(C)(C)[C@H]1C(=O)NCc1ccccc1C)C(C)C [Example 31, (R)-N-(2-methylbenzyl)-3-{(2S,3S)-2-hydroxy-3-[(S)-2-(methoxyacetyl)amino-3-methylbutanoyl]amino-4-phenylbutanoyl}-5,5-dimethyl-1,3-thiazolidine-4-car boxamide] | 89.6 | – |
| CC[C@H](NC(=O)COc1cccc(N(C)C)c1)C(=O)N[C@@H](Cc1ccccc1)[C@H](O)C(=O)N1CSC(C)(C)[C@H]1C(=O)NCc1ccccc1C [Example 25, (R)-N-(2-methylbenzyl)-3-{(2S,3S)-2-hydroxy-3-[(S)-2-(3-dimethylaminophenoxyacetyl)aminobutanoyl]amino-4-phenylbutanoyl}-5,5-dimethyl-1-thiazolidine-4-carboxamide] | – | Enzyme activity inhibition rate (%) (addition concentration of 50 nM) [1]: 99.9% |
| Cc1ccccc1CNC(=O)[C@H]1N(C(=O)[C@@H](O)[C@H](Cc2ccccc2)NC(=O)[C@@H](NC(=O)COc2cccc(N(C)C)c2)C(C)C)CSC1(C)C [Example 22, (R)-N-(2-methylbenzyl)-3-{(2S,3S)-2-hydroxy-3-[(S)-2-(3-dimethylaminophenoxyacetyl)amino-3-methylbutanoyl]amino-4-phenylbutanoyl}-5,5-dimethyl-1,3-thi azolidine-4-carboxamide] | 97.6 | – |
| COC(=O)N[C@H](C(=O)N[C@@H](Cc1ccccc1)[C@H](O)C(=O)N1CSC(C)(C)[C@H]1C(=O)NCc1ccccc1C)[C@@H](C)O [Example 39, (R)-N-(2-methylbenzyl)-3-{(2S,3S)-2-hydroxy-3-[N-(methoxycarbonyl)-L-threonyl]amino-4-phenylbutanoyl}-5,5-dimethyl-1,3-thiazolidine-4-carboxamide] | 84.6 | – |
| COCCOC(=O)N[C@H](C(=O)N[C@@H](Cc1ccccc1)[C@H](O)C(=O)N1CSC(C)(C)[C@H]1C(=O)NCc1ccccc1C)C(C)C [Example 30, (R)-N-(2-methylbenzyl)-3-{(2S,3S)-2-hydroxy-3-[(S)-2-(methoxyethoxycarbonyl)amino-3-methylbutanoyl]amino-4-phenylbutanoyl}-5,5-dimethyl-1,3-thiazolidine-4-carboxamide] | 94.2 | – |
| Cc1ccccc1CNC(=O)[C@@H]1CSCN1C(=O)[C@@H](O)[C@H](Cc1ccccc1)NC(=O)[C@H](CC(N)=O)NC(=O)OCc1ccccc1 [Example 2, (R)-N-(2-methylbenzyl)-3-{(2S,3S)-3-[N-(benzyloxycarbonyl)-L-asparaginyl]amino-2-hydroxy-4-phenylbutanoyl}-1,3-thiazolidine-4-carboxamide] | 71.7 | – |
| Cc1ccccc1CNC(=O)[C@@H]1[C@@H](C)OCN1C(=O)[C@@H](O)[C@H](Cc1ccccc1)NC(=O)[C@H](CC(N)=O)NC(=O)OCc1ccccc1 [Example 9, (4S,5R)-N-(2-methylbenzyl)-3-{(2S,3S)-3-[N-(benzyloxycarbonyl)-L-asparaginyl]amino-2-hydroxy-4-phenylbutanoyl}-5-methyl-1,3-oxazolidine-4-carboxamide] | 61.9 | – |
